Assay results published in ChEMBL document CHEMBL1201862, “PubChem BioAssay data set” (2004).
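Interpolation was linear, between the two tested concentrations surrounding the appropriate level; five concentrations were tested over 48 hours in 96-well plates. The concentration for 50% growth inhibition is given as GI50.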 Active and inactive are the calls of the source. Cut-off read from the data, not from the text of the source: active = GI50 up to about 1.1 µM and inactive = higher.

Legend:
Experiment in all cases: NCI anticancer screen, dose series, 48 h
[1] = system: MDA-MB-231
[2] = system: HCT-116
[3] = system: DU-145
[4] = system: A549
[5] = system: HT-29
[6] = system: SK-MEL-5
[7] = system: A498
[8] = system: COLO 205
[9] = system: ACHN
[10] = system: UACC-62
[11] = system: KM12
[12] = system: UO-31
[13] = system: SNB-19
[14] = system: HCT-15
[15] = system: HOP-92
[16] = system: SK-OV-3
[17] = system: SF-268
[18] = system: NCI-H23
[19] = system: NCI-H226

Row | SMILES | GI50 [1] | GI50 [2] | GI50 [3] | GI50 [4] | GI50 [5] | GI50 [6] | GI50 [7] | GI50 [8] | GI50 [9] | GI50 [10] | GI50 [11] | GI50 [12] | GI50 [13] | GI50 [14] [µM] | GI50 [15] | GI50 [16] | GI50 [17] | GI50 [18] | GI50 [19]
1 | CN(CCNCc1cn(C)c2c1ccc1ccccc12)CCNCc1cn(C)c2c1ccc1ccccc12 | 1.79 µM (inactive) | 1.45 µM (inactive) | 1.64 µM (inactive) | 1.45 µM (inactive) | 1.61 µM (inactive) | 1.87 µM (inactive) | 0.188 µM (active) | 0.948 µM (active) | 1.63 µM (inactive) | 1.67 µM (inactive) | 1.51 µM (inactive) | 1.39 µM (inactive) | 1.39 µM (inactive) | 1.46 | 1.6 µM (inactive) | 1.76 µM (inactive) | 1.58 µM (inactive) | 1.64 µM (inactive) | –
2 | Cc1ccc(S(=O)(=O)NN=C2C(C)CC(C(C)(C)C)CC2C)cc1 (stereo not drawn) | 28.6 µM (inactive) | 17.5 µM (inactive) | 19.7 µM (inactive) | 17.9 µM (inactive) | 18.5 µM (inactive) | 17.3 µM (inactive) | 17.4 µM (inactive) | 18.4 µM (inactive) | – | 32.3 µM (inactive) | 17.6 µM (inactive) | 21 µM (inactive) | 26.3 µM (inactive) | 18.2 | 15.5 µM (inactive) | 24.4 µM (inactive) | – | 24.4 µM (inactive) | 19 µM (inactive)
3 | CCCCCC(CO)C(O)(C(F)(F)F)C(F)(F)F (stereo not drawn) | > 10 µM (inactive) | > 10 µM (inactive) | > 10 µM (inactive) | > 10 µM (inactive) | > 10 µM (inactive) | > 10 µM (inactive) | > 10 µM (inactive) | > 10 µM (inactive) | > 10 µM (inactive) | > 10 µM (inactive) | > 10 µM (inactive) | – | > 10 µM (inactive) | > 10 | > 10 µM (inactive) | > 10 µM (inactive) | > 10 µM (inactive) | > 10 µM (inactive) | > 10 µM (inactive)
4 | O=c1[nH]c(=O)n(COCc2ccccc2)c2ccc(Br)cc12 | > 100 µM (inactive) | > 100 µM (inactive) | > 100 µM (inactive) | > 100 µM (inactive) | > 100 µM (inactive) | 99.3 µM (inactive) | > 100 µM (inactive) | > 100 µM (inactive) | 27.5 µM (inactive) | > 100 µM (inactive) | > 100 µM (inactive) | > 100 µM (inactive) | 64.3 µM (inactive) | 71.4 | > 100 µM (inactive) | > 100 µM (inactive) | – | – | 36.3 µM (inactive)
5 | O=C1c2ccccc2/C=C\C(c2ccccc2)=N/N1c1ccccc1Cl | 11.9 µM (inactive) | 28.1 µM (inactive) | 49.1 µM (inactive) | 17.1 µM (inactive) | 17.5 µM (inactive) | 13.4 µM (inactive) | 26.5 µM (inactive) | > 10 µM (inactive) | 26.4 µM (inactive) | – | 11.6 µM (inactive) | 32.5 µM (inactive) | 19.1 µM (inactive) | 29.5 | 26.5 µM (inactive) | – | 54.2 µM (inactive) | 28.8 µM (inactive) | 46.8 µM (inactive)
6 | C/C=C1/CC(C(=O)OC)N(C(=O)OCc2ccccc2)C1=S (stereo not drawn) | > 100 µM (inactive) | > 100 µM (inactive) | > 100 µM (inactive) | > 100 µM (inactive) | > 100 µM (inactive) | > 100 µM (inactive) | > 100 µM (inactive) | > 100 µM (inactive) | > 100 µM (inactive) | > 100 µM (inactive) | > 100 µM (inactive) | > 100 µM (inactive) | > 100 µM (inactive) | > 100 | > 100 µM (inactive) | > 100 µM (inactive) | > 100 µM (inactive) | > 100 µM (inactive) | –
7 | COc1ccc(-c2c(C#N)c(N)nc(S)c2C#N)cc1 | 26.1 µM (inactive) | 29.4 µM (inactive) | 34.8 µM (inactive) | 48.4 µM (inactive) | 48.6 µM (inactive) | 26.2 µM (inactive) | > 100 µM (inactive) | 30.1 µM (inactive) | 71 µM (inactive) | 41.5 µM (inactive) | 41.8 µM (inactive) | 34.9 µM (inactive) | 57.7 µM (inactive) | 33.3 | 40.6 µM (inactive) | – | 30.7 µM (inactive) | 38.3 µM (inactive) | 21.1 µM (inactive)
8 | CSc1c2c(C)n[nH]c2nn1-c1ccccc1 | 18.4 µM (inactive) | 45.4 µM (inactive) | 88.3 µM (inactive) | > 100 µM (inactive) | 36 µM (inactive) | > 100 µM (inactive) | 90.8 µM (inactive) | 62.2 µM (inactive) | – | 68.1 µM (inactive) | 68.7 µM (inactive) | 46.7 µM (inactive) | > 100 µM (inactive) | 37.2 | – | > 100 µM (inactive) | 57.8 µM (inactive) | > 100 µM (inactive) | 58.5 µM (inactive)
9 | N#CC(=N)c1ncn(CCO)c1NC(=O)C(F)(F)F | > 100 µM (inactive) | > 100 µM (inactive) | > 100 µM (inactive) | > 100 µM (inactive) | > 100 µM (inactive) | > 100 µM (inactive) | > 100 µM (inactive) | > 100 µM (inactive) | > 100 µM (inactive) | > 100 µM (inactive) | > 100 µM (inactive) | – | > 100 µM (inactive) | > 100 | – | > 100 µM (inactive) | > 100 µM (inactive) | > 100 µM (inactive) | > 100 µM (inactive)
10 | CCN(CC)CCNC(=O)c1cc2cc(NC(=O)c3cc4cc(N)ccc4[nH]3)ccc2[nH]1 | 25.4 µM (inactive) | 16 µM (inactive) | 19.6 µM (inactive) | 41 µM (inactive) | 30.6 µM (inactive) | – | > 100 µM (inactive) | 12.9 µM (inactive) | > 100 µM (inactive) | 23.4 µM (inactive) | 14.7 µM (inactive) | > 100 µM (inactive) | 49.3 µM (inactive) | > 100 | 24 µM (inactive) | 31.3 µM (inactive) | 31.4 µM (inactive) | 50.6 µM (inactive) | –
11 | C=C[C@@]1(C)CC[C@@H]2[C@@]3(C1)O[C@H]3CC1[C@](C)(C(=O)OC)CCC[C@@]12C (stereo partly drawn) | 23 µM (inactive) | 13.7 µM (inactive) | 30.4 µM (inactive) | 23.1 µM (inactive) | 14.1 µM (inactive) | 17.8 µM (inactive) | 32.5 µM (inactive) | 16.6 µM (inactive) | 16.1 µM (inactive) | 27 µM (inactive) | 35.6 µM (inactive) | 17.9 µM (inactive) | 16.3 µM (inactive) | 19.5 | 16.7 µM (inactive) | 27.4 µM (inactive) | 20.2 µM (inactive) | 24.4 µM (inactive) | –
12 | O=[N+]([O-])C(=C(N1CCOCC1)N1CCOCC1)/C(Cl)=C(\Cl)[N+](=O)[O-] | 3.85 µM (inactive) | 2 µM (inactive) | 7.45 µM (inactive) | 23.1 µM (inactive) | 4.1 µM (inactive) | 1.66 µM (inactive) | 20.2 µM (inactive) | 3.18 µM (inactive) | 6.31 µM (inactive) | 16.6 µM (inactive) | 16.3 µM (inactive) | 6.71 µM (inactive) | 25.8 µM (inactive) | 2.7 | – | 52.7 µM (inactive) | 10.6 µM (inactive) | 3.33 µM (inactive) | 47 µM (inactive)
13 | O=C(CN1CCOCC1)c1ccc2c(c1)oc(=O)n2CCN1CCCC1 | > 100 µM (inactive) | > 100 µM (inactive) | > 100 µM (inactive) | – | > 100 µM (inactive) | > 100 µM (inactive) | > 100 µM (inactive) | > 100 µM (inactive) | > 100 µM (inactive) | > 100 µM (inactive) | > 100 µM (inactive) | – | > 100 µM (inactive) | > 100 | – | > 100 µM (inactive) | > 100 µM (inactive) | > 100 µM (inactive) | > 100 µM (inactive)
14 | COC(=O)c1c(C)cccc1C1CN=NC12Cc1ccc(C)cc1C2=O (stereo not drawn) | 47.1 µM (inactive) | 25 µM (inactive) | 49 µM (inactive) | 33.5 µM (inactive) | 31.8 µM (inactive) | 17.5 µM (inactive) | 43.6 µM (inactive) | – | 26.9 µM (inactive) | 32.6 µM (inactive) | 47.9 µM (inactive) | 36.1 µM (inactive) | 38.1 µM (inactive) | 50.2 | 23.8 µM (inactive) | – | 50.7 µM (inactive) | 39.2 µM (inactive) | 44.4 µM (inactive)
15 | CCCc1cc(O)c2c(C)c3[nH]c4ccc(Cl)cc4c3c(C)c2n1 | 1.85 µM (inactive) | 1.63 µM (inactive) | 6.3 µM (inactive) | 2.24 µM (inactive) | 1.77 µM (inactive) | 9.68 µM (inactive) | 1.49 µM (inactive) | 2 µM (inactive) | 1.91 µM (inactive) | – | 3.48 µM (inactive) | 1.75 µM (inactive) | 2.55 µM (inactive) | 1.69 | 2.31 µM (inactive) | – | 6.71 µM (inactive) | 2.91 µM (inactive) | 2.81 µM (inactive)
16 | O=P(O)(O)OP(=O)(O)O | > 100 µM (inactive) | > 100 µM (inactive) | > 100 µM (inactive) | > 100 µM (inactive) | > 100 µM (inactive) | > 100 µM (inactive) | > 100 µM (inactive) | > 100 µM (inactive) | > 100 µM (inactive) | > 100 µM (inactive) | > 100 µM (inactive) | > 100 µM (inactive) | > 100 µM (inactive) | > 100 | > 100 µM (inactive) | > 100 µM (inactive) | > 100 µM (inactive) | > 100 µM (inactive) | –
